Laboratory results reported in PubChem BioAssay (NCI).
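Abbreviation: GI50, concentration required for 50% inhibition of growth. TGI: total growth inhibition.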

Tests used:
Assay in all cases: NCI-60 cell line screen, 384-well format
786-0 renal = system: 786-0 renal
A498 renal = system: A498 renal
BT-549 breast = system: BT-549 breast
CCRF-CEM leukemia = system: CCRF-CEM leukemia
COLO 205 colon = system: COLO 205 colon
HCC-2998 colon = system: HCC-2998 colon
HCT-15 colon = system: HCT-15 colon
HL-60(TB) leukemia = system: HL-60(TB) leukemia
HOP-62 NSCLC = system: HOP-62 NSCLC
HT29 colon = system: HT29 colon
IGROV1 ovarian = system: IGROV1 ovarian
KM12 colon = system: KM12 colon
LOX IMVI melanoma = system: LOX IMVI melanoma
M14 melanoma = system: M14 melanoma
MALME-3M melanoma = system: MALME-3M melanoma
MDA-MB-231 breast = system: MDA-MB-231 breast
MDA-MB-435 melanoma = system: MDA-MB-435 melanoma
MDA-MB-468 breast = system: MDA-MB-468 breast
MOLT-4 leukemia = system: MOLT-4 leukemia
NCI-H226 lung = system: NCI-H226 lung
NCI-H23 lung = system: NCI-H23 lung
NCI-H322M lung = system: NCI-H322M lung
NCI-H460 NSCLC = system: NCI-H460 NSCLC
NCI-H522 lung = system: NCI-H522 lung
NCI/ADR-RES ovarian = system: NCI/ADR-RES ovarian
OVCAR-3 ovarian = system: OVCAR-3 ovarian
OVCAR-4 ovarian = system: OVCAR-4 ovarian
OVCAR-8 ovarian = system: OVCAR-8 ovarian
RPMI-8226 leukemia = system: RPMI-8226 leukemia
RXF 393 renal = system: RXF 393 renal
SF-268 CNS = system: SF-268 CNS
SF-295 CNS = system: SF-295 CNS
SF-539 CNS = system: SF-539 CNS
SK-MEL-2 melanoma = system: SK-MEL-2 melanoma
SK-MEL-28 melanoma = system: SK-MEL-28 melanoma
SK-MEL-5 melanoma = system: SK-MEL-5 melanoma
SK-OV-3 ovarian = system: SK-OV-3 ovarian
SN12C renal = system: SN12C renal
SNB-19 CNS = system: SNB-19 CNS
SR leukemia = system: SR leukemia
TK-10 renal = system: TK-10 renal
U251 glioblastoma = system: U251 glioblastoma
UACC-257 melanoma = system: UACC-257 melanoma
UACC-62 melanoma = system: UACC-62 melanoma
UO-31 renal = system: UO-31 renal

Question: Which GI50 (786-0 renal) does the source give for `COc1ncnn2ccc(-c3cnc4nc(C)n(Cc5nnc(C(C)F)o5)c4c3)c12` (stereo not given) here?
Answer: The GI50 was 116 nM.

Question: And the TGI (786-0 renal)?
Answer: The TGI was 252 nM.

Question: And the GI50 (A498 renal)?
Answer: Its GI50 is 42.6 nM.

Question: What about the TGI (A498 renal) of the same compound?
Answer: Its TGI is 187 nM.

Question: And the GI50 (BT-549 breast)?
Answer: The GI50 was 16.9 nM.

Question: And the TGI (BT-549 breast)?
Answer: Its TGI is 49.9 nM.

Question: What about the GI50 (CCRF-CEM leukemia) of the same compound?
Answer: Its GI50 is 21.1 nM.

Question: And the TGI (CCRF-CEM leukemia)?
Answer: Its TGI is 41.9 nM.

Question: And the GI50 (COLO 205 colon)?
Answer: Its GI50 is 26.8 nM.

Question: What about the TGI (COLO 205 colon) of the same compound?
Answer: The TGI was 67.5 nM.

Question: And the GI50 (HCC-2998 colon)?
Answer: Its GI50 is 41.1 nM.

Question: What about the TGI (HCC-2998 colon) of the same compound?
Answer: The TGI was 196 nM.

Question: And the GI50 (HCT-15 colon)?
Answer: Its GI50 is 33 nM.

Question: What about the TGI (HCT-15 colon) of the same compound?
Answer: The TGI was 147 nM.

Question: What about the GI50 (HL-60(TB) leukemia) of the same compound?
Answer: The GI50 was 51.5 nM.

Question: And the TGI (HL-60(TB) leukemia)?
Answer: Its TGI is 156 nM.

Question: And the GI50 (HOP-62 NSCLC)?
Answer: Its GI50 is 27.5 nM.

Question: What about the TGI (HOP-62 NSCLC) of the same compound?
Answer: The TGI was 122 nM.

Question: And the GI50 (HT29 colon)?
Answer: Its GI50 is 142 nM.

Question: And the TGI (HT29 colon)?
Answer: Its TGI is 284 nM.

Question: And the GI50 (IGROV1 ovarian)?
Answer: Its GI50 is 26.5 nM.

Question: And the TGI (IGROV1 ovarian)?
Answer: Its TGI is 135 nM.

Question: What about the GI50 (KM12 colon) of the same compound?
Answer: The GI50 was 24.8 nM.

Question: And the TGI (KM12 colon)?
Answer: The TGI was 95.5 nM.

Question: And the GI50 (LOX IMVI melanoma)?
Answer: The GI50 was 58.3 nM.

Question: What about the TGI (LOX IMVI melanoma) of the same compound?
Answer: Its TGI is 161 nM.

Question: What about the GI50 (M14 melanoma) of the same compound?
Answer: Its GI50 is 185 nM.

Question: What about the TGI (M14 melanoma) of the same compound?
Answer: Its TGI is 334 nM.

Question: And the GI50 (MALME-3M melanoma)?
Answer: Its GI50 is 95.6 nM.

Question: What about the TGI (MALME-3M melanoma) of the same compound?
Answer: The TGI was 223 nM.

Question: What about the GI50 (MDA-MB-231 breast) of the same compound?
Answer: Its GI50 is 77.9 nM.

Question: And the TGI (MDA-MB-231 breast)?
Answer: The TGI was 415 nM.

Question: What about the GI50 (MDA-MB-435 melanoma) of the same compound?
Answer: Its GI50 is 67.3 nM.

Question: What about the TGI (MDA-MB-435 melanoma) of the same compound?
Answer: Its TGI is 236 nM.

Question: What about the GI50 (MDA-MB-468 breast) of the same compound?
Answer: Its GI50 is 17.6 nM.

Question: What about the TGI (MDA-MB-468 breast) of the same compound?
Answer: The TGI was 43.4 nM.

Question: What about the GI50 (MOLT-4 leukemia) of the same compound?
Answer: Its GI50 is 18.5 nM.

Question: What about the TGI (MOLT-4 leukemia) of the same compound?
Answer: Its TGI is 33.4 nM.

Question: What about the GI50 (NCI-H226 lung) of the same compound?
Answer: Its GI50 is 117 nM.

Question: What about the TGI (NCI-H226 lung) of the same compound?
Answer: The TGI was 283 nM.

Question: And the GI50 (NCI-H23 lung)?
Answer: Its GI50 is 19.7 nM.

Question: And the TGI (NCI-H23 lung)?
Answer: The TGI was 46.9 nM.

Question: What about the GI50 (NCI-H322M lung) of the same compound?
Answer: The GI50 was 82.2 nM.

Question: And the TGI (NCI-H322M lung)?
Answer: Its TGI is 815 nM.

Question: What about the GI50 (NCI-H460 NSCLC) of the same compound?
Answer: The GI50 was 42.6 nM.

Question: And the TGI (NCI-H460 NSCLC)?
Answer: Its TGI is 163 nM.

Question: What about the GI50 (NCI-H522 lung) of the same compound?
Answer: The GI50 was 14.8 nM.

Question: What about the TGI (NCI-H522 lung) of the same compound?
Answer: Its TGI is 52 nM.

Question: What about the GI50 (NCI/ADR-RES ovarian) of the same compound?
Answer: Its GI50 is 154 nM.

Question: And the TGI (NCI/ADR-RES ovarian)?
Answer: Its TGI is 415 nM.

Question: And the GI50 (OVCAR-3 ovarian)?
Answer: The GI50 was 17.2 nM.

Question: And the TGI (OVCAR-3 ovarian)?
Answer: The TGI was 41.4 nM.

Question: What about the GI50 (OVCAR-4 ovarian) of the same compound?
Answer: The GI50 was 57.2 nM.

Question: And the TGI (OVCAR-4 ovarian)?
Answer: Its TGI is 215 nM.

Question: What about the GI50 (OVCAR-8 ovarian) of the same compound?
Answer: The GI50 was 40.2 nM.

Question: And the TGI (OVCAR-8 ovarian)?
Answer: Its TGI is 256 nM.

Question: What about the GI50 (RPMI-8226 leukemia) of the same compound?
Answer: Its GI50 is 40.5 nM.

Question: What about the TGI (RPMI-8226 leukemia) of the same compound?
Answer: The TGI was 95.8 nM.

Question: What about the GI50 (RXF 393 renal) of the same compound?
Answer: The GI50 was 56 nM.

Question: What about the TGI (RXF 393 renal) of the same compound?
Answer: The TGI was 188 nM.

Question: And the GI50 (SF-268 CNS)?
Answer: The GI50 was 133 nM.

Question: And the TGI (SF-268 CNS)?
Answer: The TGI was 400 nM.

Question: What about the GI50 (SF-295 CNS) of the same compound?
Answer: The GI50 was 110 nM.

Question: What about the TGI (SF-295 CNS) of the same compound?
Answer: The TGI was 307 nM.

Question: What about the GI50 (SF-539 CNS) of the same compound?
Answer: The GI50 was 126 nM.

Question: And the TGI (SF-539 CNS)?
Answer: Its TGI is 286 nM.

Question: And the GI50 (SK-MEL-2 melanoma)?
Answer: Its GI50 is 29.4 nM.

Question: And the TGI (SK-MEL-2 melanoma)?
Answer: Its TGI is 77.2 nM.

Question: And the GI50 (SK-MEL-28 melanoma)?
Answer: The GI50 was 51.9 nM.

Question: What about the TGI (SK-MEL-28 melanoma) of the same compound?
Answer: The TGI was 184 nM.

Question: What about the GI50 (SK-MEL-5 melanoma) of the same compound?
Answer: The GI50 was 15.4 nM.

Question: And the TGI (SK-MEL-5 melanoma)?
Answer: The TGI was 45 nM.

Question: What about the GI50 (SK-OV-3 ovarian) of the same compound?
Answer: Its GI50 is 28.7 nM.

Question: What about the TGI (SK-OV-3 ovarian) of the same compound?
Answer: The TGI was 132 nM.

Question: What about the GI50 (SN12C renal) of the same compound?
Answer: Its GI50 is 43.5 nM.

Question: And the TGI (SN12C renal)?
Answer: Its TGI is 215 nM.

Question: And the GI50 (SNB-19 CNS)?
Answer: Its GI50 is 37.1 nM.

Question: And the TGI (SNB-19 CNS)?
Answer: Its TGI is > 100000 nM.

Question: What about the GI50 (SR leukemia) of the same compound?
Answer: The GI50 was 15.5 nM.

Question: What about the TGI (SR leukemia) of the same compound?
Answer: The TGI was 29.4 nM.

Question: What about the GI50 (TK-10 renal) of the same compound?
Answer: The GI50 was 44.7 nM.

Question: What about the TGI (TK-10 renal) of the same compound?
Answer: The TGI was 261 nM.

Question: What about the GI50 (U251 glioblastoma) of the same compound?
Answer: Its GI50 is 43.2 nM.

Question: What about the TGI (U251 glioblastoma) of the same compound?
Answer: Its TGI is 338 nM.

Question: And the GI50 (UACC-257 melanoma)?
Answer: Its GI50 is 20.1 nM.

Question: What about the TGI (UACC-257 melanoma) of the same compound?
Answer: The TGI was 56.6 nM.

Question: And the GI50 (UACC-62 melanoma)?
Answer: The GI50 was 24.9 nM.

Question: And the TGI (UACC-62 melanoma)?
Answer: Its TGI is 80.7 nM.

Question: And the GI50 (UO-31 renal)?
Answer: Its GI50 is 103 nM.

Question: And the TGI (UO-31 renal)?
Answer: The TGI was 270 nM.
